Data from patent US9233979B2, “Compounds that are ERK inhibitors” (Merck Sharp & Dohme Corp., priority 2012, dated 2016).

Target: phosphorylated active hERK2 enzyme (Homo sapiens (Human), UniProt P28482)
Assay: Active Human ERK2 (hERK2) Activity Assay (IMAP-FP)
Assay type: biochemical
Settings: Table 6, 0.5 nM hERK2, 30 μM ATP, 10 point titration, read-out: AERK2 IC50
Procedure, shortened: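 IMAP detection beads in buffer with 24 mM NaCl stopped the reaction, and fluorescence polarization was read after 60 min binding.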

phosphorylated active hERK2 enzyme, sequence (P28482 whole entry): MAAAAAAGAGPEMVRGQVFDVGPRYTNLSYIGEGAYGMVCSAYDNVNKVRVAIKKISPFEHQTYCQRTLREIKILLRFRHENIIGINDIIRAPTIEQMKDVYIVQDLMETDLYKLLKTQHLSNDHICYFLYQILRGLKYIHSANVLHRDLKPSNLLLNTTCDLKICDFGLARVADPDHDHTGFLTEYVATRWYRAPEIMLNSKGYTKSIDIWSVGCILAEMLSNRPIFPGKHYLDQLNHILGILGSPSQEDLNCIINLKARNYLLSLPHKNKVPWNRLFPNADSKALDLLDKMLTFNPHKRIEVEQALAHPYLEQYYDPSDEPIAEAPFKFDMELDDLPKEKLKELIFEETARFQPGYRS

| IC50 | SMILES |
| --- | --- |
| 21.6 nM | C[C@@H](NC(=O)Nc1cc2[nH]nc(NC(=O)OCC(F)F)c2cn1)c1ccc(F)cc1 [Example 405, 2,2-difluoroethyl [6-({[(1R)-1-(4-fluorophenyl)ethyl]carbamoyl}amino)-1H-pyrazolo[4,3-c]pyridin-3-yl]-carbamate] |
| 1.5 nM | CC(C)(O)[C@@H](NC(=O)Nc1cc2[nH]nc(NC(=O)OCC(F)F)c2cn1)c1ccc(F)cc1 [Example 406, 2,2-difluoroethyl [6-({[(1S)-1-(4-fluorophenyl)-2-hydroxy-2-methyl-propyl]carbamoyl}amino)-1H-pyrazolo[4,3-c]-pyridin-3-yl]-carbamate] |
| 2.4 nM | CC(Nc1n[nH]c2cc(NC(=O)N[C@H](C)c3ccccc3)ncc12)C(F)(F)F (stereo partly drawn) [Example 407, 1-[(1R)-1-phenylethyl]-3-{3-[(2,2,2-trifluoro-1-methylethyl)amino]-1H-pyrazolo[4,3-c]pyridin-6-yl}urea] |
| 101 nM | C[C@@H](NC(=O)Nc1cc2[nH]nc(N3CCCC3=O)c2cn1)c1ccccc1 [Example 408, 1-[3-(2-oxopyrrolidin-1-yl)-1H-pyrazolo[4,3-c]-pyridin-6-yl]-3-[(1R)-1-phenylethyl]urea] |
| 2.4 nM | C[C@@H](NC(=O)Nc1cc2[nH]nc(N3CCC(O)CC3)c2cn1)c1ccccc1 [Example 409, 1-[3-(4-hydroxypiperidin-1-yl)-1H-pyrazolo[4,3-c]-pyridin-6-yl]-3-[(1R)-1-phenylethyl]urea] |
| 1.2 nM | COC[C@@H](NC(=O)Nc1cc2[nH]nc(N3CCC(O)CC3)c2cn1)c1ccccc1 [Example 410, 1-[3-(4-hydroxypiperidin-1-yl)-1H-pyrazolo[4,3-c]-pyridin-6-yl]-3-[(1S)-2-methoxy-1-phenylethyl]urea] |
| 99.3 nM | CCNc1n[nH]c2cc(NC(=O)N[C@@H]3CCC[C@H]3OC)ncc12 [Example 411, 1-[3-(ethylamino)-1H-pyrazolo[4,3-c]pyridin-6-yl]-3-[(1R,2R)-2-methoxy-cyclopentyl]urea] |
| 421 nM | CCNc1n[nH]c2cc(NC(=O)NC(C(=O)N(CC)CC)c3ccc(F)cc3)ncc12 (stereo not shown) [Example 412, N,N-diethyl-2-({[3-(ethylamino)-1H-pyrazolo[4,3-c]-pyridin-6-yl]-carbamoyl}amino)-2-(4-fluoro-phenyl)acetamide] |
| 4.5 nM | COC1CCN(c2n[nH]c3cc(NC(=O)N[C@H](C)c4ccccc4)ncc23)CC1 [Example 413, 1-[3-(4-methoxypiperidin-1-yl)-1H-pyrazolo[4,3-c]-pyridin-6-yl]-3-[(1R)-1-phenylethyl]urea] |
| 413 nM | CCNc1n[nH]c2cc(NC(=O)NC(C(=O)N(C)C)c3ccc(F)cc3)ncc12 (stereo not shown) [Example 414, 2-({[3-(ethylamino)-1H-pyrazolo[4,3-c]-pyridin-6-yl]-carbamoyl}amino)-2-(4-fluorophenyl)-N,N-dimethyl-acetamide] |
| 1 nM | COC[C@@H](NC(=O)Nc1cc2[nH]nc(N3CCC(OC)CC3)c2cn1)c1ccccc1 [Example 415, 1-[(1S)-2-methoxy-1-phenylethyl]-3-[3-(4-methoxypiperidin-1-yl)-1H-pyrazolo[4,3-c]pyridin-6-yl]urea] |
| 483 nM | CO[C@@H]1CCC[C@H]1NC(=O)Nc1cc2[nH]nc(N)c2cn1 [Example 416, 1-(3-amino-1H-pyrazolo[4,3-c]pyridin-6-yl)-3-[(1R,2R)-2-methoxy-cyclopentyl]urea] |
| 0.6 nM | COC[C@@H](NC(=O)Nc1cc2[nH]nc(NC(C)C(F)(F)F)c2cn1)c1ccccc1 (stereo partly drawn) [Example 417, 1-[(1S)-2-methoxy-1-phenylethyl]-3-{3-[(2,2,2-trifluoro-1-methylethyl)-amino]-1H-pyrazolo[4,3-c]-pyridin-6-yl}urea] |
| 3.2 nM | CC(Nc1n[nH]c2cc(NC(=O)N[C@H](C)c3ccccc3)ncc12)C(F)(F)F (stereo partly drawn) [Example 418, 1-[(1R)-1-phenylethyl]-3-{3-[(2,2,2-trifluoro-1-methylethyl)amino]-1H-pyrazolo[4,3-c]pyridin-6-yl}urea] |
| 2.2 nM | CC(Nc1n[nH]c2cc(NC(=O)N[C@H](C)c3ccccc3)ncc12)C(F)(F)F (stereo partly drawn) [Example 419, 1-[(1R)-1-phenylethyl]-3-{3-[(2,2,2-trifluoro-1-methylethyl)amino]-1H-pyrazolo[4,3-c]pyridin-6-yl}urea] |
| 2.1 nM | CCNc1n[nH]c2cc(NC(=O)N[C@@H](c3ccccc3)C(C)(C)O)ncc12 [Example 420, 1-[3-(ethylamino)-1H-pyrazolo[4,3-c]pyridin-6-yl]-3-[(1S)-2-hydroxy-2-methyl-1-phenylpropyl]urea] |
| 0.6 nM | COC[C@@H](NC(=O)Nc1cc2[nH]nc(NC(C)C(F)(F)F)c2cn1)c1ccccc1 (stereo partly drawn) [Example 421, 1-[(1S)-2-methoxy-1-phenylethyl]-3-{3-[(2,2,2-trifluoro-1-methylethyl)-amino]-1H-pyrazolo[4,3-c]-pyridin-6-yl}urea] |

| IC50 | SMILES |
| --- | --- |
| 0.8 nM | COC[C@@H](NC(=O)Nc1cc2[nH]nc(NC(C)C(F)(F)F)c2cn1)c1ccccc1 (stereo partly drawn) [Example 422, 1-[(1S)-2-methoxy-1-phenylethyl]-3-{3-[(2,2,2-trifluoro-1-methylethyl)-amino]-1H-pyrazolo[4,3-c]-pyridin-6-yl}urea] |
| 9.7 nM | C[C@@H](NC(=O)Nc1cc2[nH]nc(N3CCC(C#N)CC3)c2cn1)c1ccccc1 [Example 423, 1-[3-(4-cyanopiperidin-1-yl)-1H-pyrazolo[4,3-c]-pyridin-6-yl]-3-[(1R)-1-phenylethyl]urea] |
| 21.5 nM | C[C@@H](NC(=O)Nc1cc2[nH]nc(N3CCC(C)(O)CC3)c2cn1)c1ccccc1 [Example 424, 1-[3-(4-hydroxy-4-methylpiperidin-1-yl)-1H-pyrazolo[4,3-c]-pyridin-6-yl]-3-[(1R)-1-phenylethyl]urea] |
| 14.9 nM | CC(C)(O)[C@@H](NC(=O)Nc1cc2[nH]nc(N)c2cn1)c1ccccc1 [Example 425, 1-(3-amino-1H-pyrazolo[4,3-c]-pyridin-6-yl)-3-[(1S)-2-hydroxy-2-methyl-1-phenylpropyl]urea] |
| 1 nM | COC1CCN(c2n[nH]c3cc(NC(=O)N[C@H](COC(F)F)c4ccccc4)ncc23)CC1 [Example 426, 1-[(1S)-2-(difluoromethoxy)-1-phenylethyl]-3-[3-(4-methoxy-piperidin-1-yl)-1H-pyrazolo[4,3-c]-pyridin-6-yl]urea] |
| 15.1 nM | CSC1CCN(c2n[nH]c3cc(NC(=O)N[C@H](C)c4ccccc4)ncc23)CC1 [Example 427, 1-{3-[4-(methylsulfanyl)-piperidin-1-yl]-1H-pyrazolo[4,3-c]-pyridin-6-yl}-3-[(1R)-1-phenylethyl]urea] |
| 1.3 nM | CC(Nc1n[nH]c2cc(NC(=O)N[C@H](COC(F)F)c3ccccc3)ncc12)C(F)(F)F (stereo partly drawn) [Example 428, 1-[(1S)-2-(difluoromethoxy)-1-phenylethyl]-3-{3-[(2,2,2-trifluoro-1-methylethyl)-amino]-1H-pyrazolo[4,3-c]-pyridin-6-yl}urea] |
| 1.1 nM | CCNc1n[nH]c2cc(NC(=O)NC(c3ccc(F)cc3)C(C)(C)O)ncc12 (stereo not shown) [Example 429, 1-[3-(ethylamino)-1H-pyrazolo[4,3-c]pyridin-6-yl]-3-[1-(4-fluorophenyl)-2-hydroxy-2-methylpropyl]urea] |
| 0.6 nM | CCNc1n[nH]c2cc(NC(=O)NC(c3ccc(F)cc3)C(C)(C)OC)ncc12 (stereo not shown) [Example 430, 1-[3-(ethylamino)-1H-pyrazolo[4,3-c]pyridin-6-yl]-3-[1-(4-fluorophenyl)-2-methoxy-2-methylpropyl]urea] |
| 0.5 nM | CCNc1n[nH]c2cc(NC(=O)N[C@@H](c3ccccc3)C(C)(C)OC)ncc12 [Example 431, 1-[3-(ethylamino)-1H-pyrazolo[4,3-c]pyridin-6-yl]-3-[(1S)-2-methoxy-2-methyl-1-phenylpropyl]urea] |
| 2.4 nM | COC(C)(C)C(NC(=O)Nc1cc2[nH]nc(N3C[C@@H](C)O[C@@H](C)C3)c2cn1)c1ccc(F)cc1 (stereo partly drawn) [Example 432, 1-{3-[(2R,6S)-2,6-dimethylmorpholin-4-yl]-1H-pyrazolo[4,3-c]-pyridin-6-yl}-3-[1-(4-fluorophenyl)-2-methoxy-2-methylpropyl]urea] |
| 0.5 nM | CC(C)(O)[C@@H](NC(=O)Nc1cc2[nH]nc(N3CCOCC3)c2cn1)c1ccccc1 [Example 433, 1-[(1S)-2-hydroxy-2-methyl-1-phenylpropyl]-3-(3-morpholin-4-yl-1H-pyrazolo[4,3-c]-pyridin-6-yl)urea] |
| 0.7 nM | CC(Nc1n[nH]c2cc(NC(=O)N[C@@H](c3ccccc3)C(C)(C)O)ncc12)C(F)(F)F (stereo partly drawn) [Example 434, 1-[(1S)-2-hydroxy-2-methyl-1-phenylpropyl]-3-{3-[(2,2,2-trifluoro-1-methylethyl)-amino]-1H-pyrazolo[4,3-c]-pyridin-6-yl}urea] |
| 1.6 nM | C[C@@H]1CN(c2n[nH]c3cc(NC(=O)NC(c4ccc(F)cc4)C(C)(C)O)ncc23)C[C@H](C)O1 (stereo partly drawn) [Example 435, 1-{3-[(2R,6S)-2,6-dimethylmorpholin-4-yl]-1H-pyrazolo[4,3-c]-pyridin-6-yl}-3-[1-(4-fluorophenyl)-2-hydroxy-2-methylpropyl]urea] |
| 0.8 nM | C[C@@H]1CN(c2n[nH]c3cc(NC(=O)N[C@@H](c4ccccc4)C(C)(C)O)ncc23)C[C@H](C)O1 [Example 436, 1-{3-[(2R,6S)-2,6-dimethylmorpholin-4-yl]-1H-pyrazolo[4,3-c]-pyridin-6-yl}-3-[(1S)-2-hydroxy-2-methyl-1-phenylpropyl]urea] |
| 0.4 nM | O=C(Nc1cc2[nH]nc(N3CCOCC3)c2cn1)N[C@H](CO)c1ccccc1 [Example 437, 1-[(1S)-2-hydroxy-1-phenylethyl]-3-(3-morpholin-4-yl-1H-pyrazolo[4,3-c]pyridin-6-yl)urea] |
| 0.4 nM | CC(C)(O)[C@@H](NC(=O)Nc1cc2[nH]nc(N3CCOCC3)c2cn1)c1ccc(F)cc1 [Example 438, 1-[(1S)-1-(4-fluorophenyl)-2-hydroxy-2-methylpropyl]-3-(3-morpholin-4-yl-1H-pyrazolo[4,3-c]-pyridin-6-yl)urea] |
